Patent US7754692B2, “Arginyl-glutamine dipeptide for treatment of pathological vascular proliferation” (University of Florida Research Foundation, Inc., priority 2003, dated 2010)
Peptide text beside a SMILES is read from it.

Assays:
[1] = test system: pre-retinal neovascularization; experiment: Neonatal mouse hyperoxia model of retinopathy of prematurity, counting pre-retinal neovascularization on stained sections; format: in vivo, mice
Description: Neonatal mice were exposed to a period of hyperoxia to induce retinal angiogenesis that mimics retinopathy of prematurity. An Arginyl-glutamine dipeptide was administered intraperitoneally twice daily during the period when neovascularization occurs in this model, days 12 through 17.
On day 17 the animals are sacrificed and degree of angiogenesis was quantified by counting pre-retinal neovascularization on stained sections from treated and untreated animals.

retinal cell culture = experiment: Retinal cell culture model, transepithelial resistance (TER); format: cell-based
[2] = test system: vascular endothelial growth factor (VEGF); experiment: Retinal cell culture model, vascular endothelial growth factor (VEGF); format: cell-based

N=C(N)NCCC[C@H](N)C(=O)N[C@@H](CCC(N)=O)C(=O)O [argininyl-glutamine, arginyl-glutamine] (H-Arg-Gln-OH)
reduction in preretinal neovascularization ([1]; neonatal mice after hyperoxia, intraperitoneally twice daily days 12 through 17, read on day 17, combined data from two experiments (FIG. 1)): 80% | nuclei (associated with retinopathy) compared to the vehicle ([1]; repeat experiment with different doses of the dipeptide after oxygen stress challenge, FIG. 2): clear decrease | transepithelial resistance (TER) (retinal cell culture): increased | vascular endothelial growth factor (VEGF) [2]: decreased
